Experimental findings from patent US9650340B2, “5-fluoro-N-(pyridin-2-yl)pyridin-2-amine derivatives containing a sulfoximine group” (BAYER PHARMA AKTIENGESELLSCHAFT, priority 2012, dated 2017) are described below.

One assay addresses T1, CDK2/CycE (Homo sapiens, UniProt P24941).
T1 construct: GST; purchased ProQinase GmbH (Freiburg, Germany); host or cells: insect cells (Sf9)
Kind of assay: CDK2/CycE kinase assay (TR-FRET, 10 μM ATP). In kind it is biochemical. To be noted: Method 2 (2a). From the text:
2a. CDK2/CycE Kinase Assay:
CDK2/CycE-inhibitory activity of compounds of the present invention was quantified employing the CDK2/CycE TR-FRET assay as described in the following paragraphs:
Recombinant fusion proteins of GST and human CDK2 and of GST and human CycE, expressed in insect cells (Sf9) and purified by Glutathion-Sepharose affinity chromatography, were purchased from ProQinase GmbH (Freiburg, Germany). As substrate for the kinase reaction biotinylated peptide biotin-Ttds-[…] (C-terminus in amid form) was used which can be purchased e.g. form the company JERINI Peptide Technologies (Berlin, Germany).
For the assay 50 nl of a 100 fold concentrated solution of the test compound in DMSO was pipetted into a black low volume 384 well microtiter plate (Greiner Bio-One, Frickenhausen, Germany), 2 μl of a solution of CDK2/CycE in aqueous assay buffer [50 mM Tris/HCl pH 8.0, 10 mM MgCl2, 1.0 mM dithiothreitol, 0.1 mM sodium ortho-vanadate, 0.01% (v/v) Nonidet-P40 (Sigma)] were added and the mixture was incubated for 15 min at 22° C. to allow pre-binding of the test compounds to the enzyme before the start of the kinase reaction. Then the kinase reaction was started by the addition of 3 μl of a solution of adenosine-tri-phosphate (ATP, 16.7 μM=>final conc. in the 5 μl assay volume is 10 μM) and substrate (1.25 μM=>final conc. in the 5 μl assay volume is 0.75 μM) in assay buffer and the resulting mixture was incubated for a reaction time of 25 min at 22° C. The concentration of CDK2/CycE was adjusted depending of the activity of the enzyme lot and was chosen appropriate to have the assay in the linear range, typical concentrations were in the range of 130 ng/mL The reaction was stopped by the addition of 5 μl of a solution of TR-FRET detection reagents (0.2 μM streptavidine-XL665 [Cisbio Bioassays, Codolet, France] and 1 nM anti-RB(pSer807/pSer811)-antibody from BD Pharmingen [#558389] and 1.2 nM LANCE EU-W1024 labeled anti-mouse IgG antibody [Perkin-Elmer, product no. AD0077]) in an aqueous EDTA-solution (100 mM EDTA, 0.2% (w/v) bovine serum albumin in 100 mM HEPES/NaOH pH 7.0).
(§1) The resulting mixture was incubated 1 h at 22° C. to allow the formation of complex between the phosphorylated biotinylated peptide and the detection reagents. Subsequently the amount of phosphorylated substrate was evaluated by measurement of the resonance energy transfer from the Eu-chelate to the streptavidine-XL. Therefore, the fluorescence emissions at 620 nm and 665 nm after excitation at 350 nm was measured in a TR-FRET reader, e.g. a Rubystar (BMG Labtechnologies, Offenburg, Germany) or a Viewlux (Perkin-Elmer). The ratio of the emissions at 665 nm and at 622 nm was taken as the measure for the amount of phosphorylated substrate.

The next assay deals with T2, CDK9/CycT1 (Homo sapiens, UniProt P50750).
T2 construct: Recombinant full-length His-tagged human CDK9 and CycT1; His; purchased Invitrogen PV4131; host or cells: insect cells
Kind of assay: CDK9/CycT1 high ATP kinase assay (TR-FRET, 2 mM ATP). It is filed as biochemical. To be noted: Method 1b. How it is done:
1b. CDK9/CyeT1 High ATP Kinase Assay
CDK9/CycT1-inhibitory activity of compounds of the present invention at a high ATP concentration after preincubation of enzyme and test compounds was quantified employing the CDK9/CycT1 TR-FRET assay as described in the following paragraphs.
Recombinant full-length His-tagged human CDK9 and CycT1, expressed in insect cells and purified by Ni-NTA affinity chromatography, were purchase from Invitrogen (Cat. No PV4131). As substrate for the kinase reaction biotinylated peptide biotin-Ttds-[…] (C-terminus in amid form) was used which can be purchased e.g. form the company JERINI peptide technologies (Berlin, Germany). For the assay 50 nl of a 100 fold concentrated solution of the test compound in DMSO was pipetted into a black low volume 384 well microtiter plate (Greiner Bio-One, Frickenhausen, Germany), 2 μl of a solution of CDK9/CycT1 in aqueous assay buffer [50 mM Tris/HCl pH 8.0, 10 mM MgCl2, 1.0 mM dithiothreitol, 0.1 mM sodium ortho-vanadate, 0.01% (v/v) Nonidet-P40 (Sigma)] were added and the mixture was incubated for 15 min at 22° C. to allow pre-binding of the test compounds to the enzyme before the start of the kinase reaction. Then the kinase reaction was started by the addition of 3 μl of a solution of adenosine-tri-phosphate (ATP, 3.3 mM=>final conc. in the 5 μl assay volume is 2 mM) and substrate (1.67 μM=>final conc. in the 5 μl assay volume is 1 μM) in assay buffer and the resulting mixture was incubated for a reaction time of 25 min at 22° C.
as §1, with “HTRF” for “TR-FRET”

T2 sequence (P50750 whole entry): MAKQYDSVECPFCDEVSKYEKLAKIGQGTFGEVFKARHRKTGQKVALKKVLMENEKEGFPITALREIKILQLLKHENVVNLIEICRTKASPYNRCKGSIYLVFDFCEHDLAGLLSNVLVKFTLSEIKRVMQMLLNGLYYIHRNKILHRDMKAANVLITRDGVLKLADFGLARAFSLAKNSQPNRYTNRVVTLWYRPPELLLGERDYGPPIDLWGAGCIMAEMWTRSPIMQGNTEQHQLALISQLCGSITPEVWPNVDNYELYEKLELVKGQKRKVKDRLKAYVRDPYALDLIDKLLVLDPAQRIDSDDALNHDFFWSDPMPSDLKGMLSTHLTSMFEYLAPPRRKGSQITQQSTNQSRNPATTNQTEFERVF
T2 sequence (O60563 whole entry partner): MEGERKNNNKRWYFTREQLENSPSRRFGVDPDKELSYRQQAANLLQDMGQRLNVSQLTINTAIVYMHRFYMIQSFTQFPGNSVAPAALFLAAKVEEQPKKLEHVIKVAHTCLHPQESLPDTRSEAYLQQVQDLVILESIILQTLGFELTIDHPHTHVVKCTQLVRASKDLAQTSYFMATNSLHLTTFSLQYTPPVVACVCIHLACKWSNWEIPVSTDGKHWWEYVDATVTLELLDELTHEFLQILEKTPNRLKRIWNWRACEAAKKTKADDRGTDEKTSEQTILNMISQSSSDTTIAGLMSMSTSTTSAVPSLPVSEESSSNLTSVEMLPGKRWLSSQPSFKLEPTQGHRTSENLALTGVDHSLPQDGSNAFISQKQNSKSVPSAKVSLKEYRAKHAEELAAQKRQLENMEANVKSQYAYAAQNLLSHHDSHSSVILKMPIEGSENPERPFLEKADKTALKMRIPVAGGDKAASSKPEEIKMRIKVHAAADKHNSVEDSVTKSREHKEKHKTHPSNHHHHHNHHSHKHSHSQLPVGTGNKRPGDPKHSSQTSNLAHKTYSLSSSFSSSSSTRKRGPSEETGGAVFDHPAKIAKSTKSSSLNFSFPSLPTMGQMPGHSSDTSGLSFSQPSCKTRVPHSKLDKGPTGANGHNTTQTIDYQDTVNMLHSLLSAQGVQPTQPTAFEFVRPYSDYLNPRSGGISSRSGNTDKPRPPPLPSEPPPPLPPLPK

`COc1cc(F)ccc1-c1cc(Nc2cc(CS(C)(=N)=O)cc(C(F)(F)F)n2)ncc1F` (racemic) [Example 21, (rac)-5-Fluoro-4-(4-fluoro-2-methoxyphenyl)-N-{4-[(S-methylsulfonimidoyl)methyl]-6-(trifluoromethyl)pyridin-2-yl}pyridin-2-amine]: the IC50 against CDK2/CycE stood at 11 nM; on CDK9/CycT1, 2 nM.

In the case of `CCOc1cc(F)ccc1-c1cc(Nc2cc(CS(C)(=N)=O)cc(F)n2)ncc1F` (racemic) [Example 26, (rac)-4-(2-Ethoxy-4-fluorophenyl)-5-fluoro-N-{6-fluoro-4-[(S-methylsulfonimidoyl)methyl]pyridin-2-yl}pyridin-2-amine], the IC50 against CDK2/CycE is 110 nM; at CDK9/CycT1 it was 4 nM.

For `CCOc1cc(F)ccc1-c1cc(Nc2cc(CS(C)(=O)=NC(=O)C(F)(F)F)cc(F)n2)ncc1F` (racemic) [Example 27, (rac)-N-{[(2-{[4-(2-Ethoxy-4-fluoro-phenyl)-5-fluoropyridin-2-yl]amino}-6-fluoropyridin-4-yl)methyl]-(methyl)oxido-λ^6-sulfanylidene}-2,2,2-trifluoroacetamide], the IC50 against CDK2/CycE was found to be 1200 nM; against CDK9/CycT1, 22 nM.

Consider `CCS(=N)(=O)Cc1ccnc(Nc2cc(-c3ccc(F)cc3OC)c(F)cn2)c1` (racemic) [Example 30, (rac)-N-{4-[(S-Ethylsulfonimidoyl)-methyl]pyridin-2-yl}-5-fluoro-4-(4-fluoro-2-methoxyphenyl)pyridin-2-amine], for which the IC50 was determined as 210 nM at CDK2/CycE and 5 nM on CDK9/CycT1.

`COc1cc(F)ccc1-c1cc(Nc2cc(CS(C)(=N)=O)cc(C(F)F)n2)ncc1F` (racemic) [Example 31, (rac)-N-{6-(Difluoromethyl)-4-[(S-methylsulfonimidoyl)methyl]pyridin-2-yl}-5-fluoro-4-(4-fluoro-2-methoxyphenyl)pyridin-2-amine]: the IC50 at CDK2/CycE is 10 nM; at CDK9/CycT1 it was 1 nM.

`COc1cc(F)ccc1-c1cc(Nc2cc(CS(C)(=O)=NC#N)ccn2)ncc1F` (single isomer, unassigned) [Example 10, {[(2-{[5-Fluoro-4-(4-fluoro-2-methoxyphenyl)pyridin-2-yl]amino}pyridin-4-yl)methyl](methyl)oxido-λ^6-sulfanylidene}cyanamide]: the IC50 at CDK2/CycE turned out to be 72 nM; against CDK9/CycT1, 1 nM.

Turning to `COc1cc(F)ccc1-c1cc(Nc2cc(CS(C)(=N)=O)cc(F)n2)ncc1F` (single isomer, unassigned; (+)) [Example 19, (+)-5-Fluoro-4-(4-fluoro-2-methoxyphenyl)-N-{6-fluoro-4-[(S-methylsulfonimidoyl)methyl]pyridin-2-yl}pyridin-2-amine], the values for the half-inhibitory concentration (IC50) on CDK2/CycE and against CDK9/CycT1 were 94 nM and 19 nM, respectively.

In the case of `COc1cc(F)ccc1-c1cc(Nc2cc(CS(C)(=N)=O)cc(C(F)(F)F)n2)ncc1F` (single isomer, unassigned; (+)) [Example 22, (+)-5-Fluoro-4-(4-fluoro-2-methoxyphenyl)-N-{4-[(S-methylsulfonimidoyl)methyl]-6-(trifluoromethyl)pyridin-2-yl}pyridin-2-amine], the IC50 against CDK2/CycE is 18 nM; against CDK9/CycT1 it was 1 nM.

Take `COc1cc(F)ccc1-c1cc(Nc2cc(CS(C)(=O)=NC(=O)C(F)(F)F)cc(C(F)(F)F)n2)ncc1F` (single isomer, unassigned; (+)) [Example 24, (+)-2,2,2-Trifluoro-N-[{[2-{[5-fluoro-4-(4-fluoro-2-methoxyphenyl)pyridin-2-yl]amino}-6-(trifluoromethyl)-pyridin-4-yl]methyl}(methyl)oxido-λ^6-sulfanylidene]acetamide]: the IC50 is 250 nM against CDK2/CycE and 27 nM against CDK9/CycT1.

In the case of `CCOc1cc(F)ccc1-c1cc(Nc2cc(CS(C)(=N)=O)cc(F)n2)ncc1F` (single isomer, unassigned; (+)) [Example 28, (+)-4-(2-Ethoxy-4-fluorophenyl)-5-fluoro-N-{6-fluoro-4-[(S-methylsulfonimidoyl)methyl]pyridin-2-yl}pyridin-2-amine], the IC50 at CDK2/CycE worked out at 120 nM; at CDK9/CycT1 it was 4 nM.

For the molecule `COc1cc(F)ccc1-c1cc(Nc2cc(CS(C)(=N)=O)cc(C)n2)ncc1F` (single isomer, unassigned; (+)) [Example 32, (+)-5-Fluoro-4-(4-fluoro-2-methoxyphenyl)-N-{6-methyl-4-[(S-methylsulfonimidoyl)methyl]pyridin-2-yl}pyridin-2-amine], the results for the IC50 at CDK2/CycE and at CDK9/CycT1 were 120 nM and 2 nM, respectively.

For `COc1cc(F)ccc1-c1cc(Nc2cc(CS(C)(=N)=O)cc(F)n2)ncc1F` (single isomer, unassigned; (-)) [Example 20, (−)-5-Fluoro-4-(4-fluoro-2-methoxyphenyl)-N-{6-fluoro-4-[(S-methylsulfonimidoyl)methyl]pyridin-2-yl}pyridin-2-amine], the half-inhibitory concentration (IC50) against CDK2/CycE was determined as 72 nM; on CDK9/CycT1, 1 nM.

As for `COc1cc(F)ccc1-c1cc(Nc2cc(CS(C)(=N)=O)cc(C(F)(F)F)n2)ncc1F` (single isomer, unassigned; (-)) [Example 23, (−)-5-Fluoro-4-(4-fluoro-2-methoxyphenyl)-N-{4-[(S-methylsulfonimidoyl)methyl]-6-(trifluoromethyl)pyridin-2-yl}pyridin-2-amine], the IC50 came to 22 nM at CDK2/CycE and 2 nM against CDK9/CycT1.

With `COc1cc(F)ccc1-c1cc(Nc2cc(CS(C)(=O)=NC(=O)C(F)(F)F)cc(C(F)(F)F)n2)ncc1F` (single isomer, unassigned; (-)) [Example 25, (−)-2,2,2-Trifluoro-N-[{[2-{[5-fluoro-4-(4-fluoro-2-methoxyphenyl)pyridin-2-yl]amino}-6-(trifluoromethyl)-pyridin-4-yl]methyl}(methyl)oxido-λ^6-sulfanylidene]acetamide], the 50% inhibitory concentration (IC50) against CDK2/CycE was found to be 110 nM; at CDK9/CycT1, 13 nM.

Take `CCOc1cc(F)ccc1-c1cc(Nc2cc(CS(C)(=N)=O)cc(F)n2)ncc1F` (single isomer, unassigned; (-)) [Example 29, (−)-4-(2-Ethoxy-4-fluorophenyl)-5-fluoro-N-{6-fluoro-4-[(S-methylsulfonimidoyl)methyl]pyridin-2-yl}pyridin-2-amine]: the values for the IC50 on CDK2/CycE and on CDK9/CycT1 were 98 nM and 4 nM, respectively.

Take `COc1cc(F)ccc1-c1cc(Nc2cc(CS(C)(=N)=O)cc(C)n2)ncc1F` (single isomer, unassigned; (-)) [Example 33, (−)-5-Fluoro-4-(4-fluoro-2-methoxyphenyl)-N-{6-methyl-4-[(S-methylsulfonimidoyl)methyl]pyridin-2-yl}pyridin-2-amine]: the half-maximal inhibitory concentration (IC50) is 67 nM against CDK2/CycE and 1 nM against CDK9/CycT1.
